Values of other authors as cited in publication PMC11208559 (Scientific Reports, 2024).

Settings: cited from earlier work

C=CCNC1=C2C[C@@H](C)C[C@H](OC)[C@H](O)[C@@H](C)/C=C(\C)[C@H](OC(N)=O)[C@@H](OC)/C=C\C=C(/C)C(=O)NC(=CC1=O)C2=O [17-AAG]
tolerability in clinical trials: liver toxicity
